From US5770613A, “Telomerase inhibitors” (Geron Corporation, priority 1995, dated 1998) come the findings set out here.

Experiment [1] concerns the target T1, telomerase (Homo sapiens, UniProt O14746).
T1 construct: preferably a cellular extract or other preparation containing telomerase; endogenous in cells
As to the kind of experiment: Inhibition of telomerase activity (IC50). In kind it is biochemical. As to conditions: approximate values (Table 2).

In experiment [2] the test system is SK-OV-3. As to the kind of experiment: XTT assay for cytotoxicity. In kind it is cell-based. As to conditions: Homo sapiens, 72 hours, 3 μM to 1,000 μM, read-out: LD50 (the source's name). As for the experimental part: (§1) The XTT assay for cytotoxicity was performed using the ovarian tumor cells lines IMR-90, OVCAR-5 and SK-OV-3. Cells from the normal human cell line BJ were used as a control. The cell lines used in the assay were exposed to Compound V of the invention for 72 hours at concentrations ranging from 3 μM to 1,000 μM. During this period, the optical density (OD) of the samples was determined for light at 540 nanometers (nm).

The test system of experiment [3] is IMR-90. As to the kind of experiment: XTT assay for cytotoxicity. The class given is cell-based. As to conditions: Homo sapiens, 72 hours, 3 μM to 1,000 μM, read-out: LD50 (the source's name). On the procedure:
as §1
In general terms: Tetrazolium assays rely on reduction of a dye to a coloured formazan, in cell work by metabolically active cells.

Experiment [4] relates to OVCAR-5. As to the kind of experiment: XTT assay for cytotoxicity. The class given is cell-based. The note with it: Homo sapiens, 72 hours, 3 μM to 1,000 μM, read-out: LD50 (the source's name). On the procedure:
as §1

For experiment [5], the system named is OVCAR-5 tumor cells. As to the kind of experiment: Human tumor xenograft model in nude mice, tumor mass. The class given is in vivo. On the procedure: In vivo testing was also performed using a mouse xenograft model in which OVCAR-5 tumor cells were grafted onto nude mice. […] In contrast, mice treated with a control (DMSO) are expected to have tumor masses that continue to increase.
A human tumor xenograft model in which OVCAR-5 tumor cells were grafted into nude mice was constructed using standard techniques and materials. The mice were divided into two groups. One group was treated intraperitoneally with Compound V. The other group was treated with a control comprising DMSO and phosphate buffer solution (PBS). The average tumor mass for mice in each group was determined periodically following the xenograft using standard methods and materials.

The test system of experiment [6] is IMR-90 cells. As to the kind of experiment: Long-term exposure of cell colonies, induction of senescence. The class given is cell-based. The note with it: 5 μM, added every second day; versus DMSO control. On the procedure: (§2) Colonies of the ovarian tumor cell lines OVCAR-5, SK-OV-3 and IMR-90 cells were prepared using standard methods and materials. In one test, the colonies were prepared by seeding 15-centimeter dishes with about 10^6 cells in each dish. The dishes were incubated to allow the cell colonies to grow to about 80% confluence, at which time each of the colonies was divided into two groups. One group was exposed to a subacute dose of Compound V (5 μM) 4-8 hours after plating following the split; the other group was exposed to a DMSO control.
(§3) Each group was then allowed to continue to divide, and the groups were split evenly again (near confluence). The same number of cells were seeded for continued growth. The compound or control was added every second day to the samples at the same concentration delivered initially (5 μM). […] No effect was seen on SK-OV-3 cells.

The subject of experiment [7] is Single-Stranded DNA Binding Protein (SSB). As to the kind of experiment: Specificity screen versus telomerase. The class given is biochemical. As to conditions: from IC50 screening. From the text: (§4) Compound V was screened for activity (IC50) against telomerase and several enzymes having nucleic acid binding or modifying activities related to telomerase using standard techniques. The enzymes screened included Telomerase, Topoisomerase II, Terminal Transferase and Single-Stranded DNA Binding Protein (SSB).

For experiment [8], the system named is Topoisomerase II. As to the kind of experiment: Specificity screen versus telomerase. In kind it is biochemical. The note with it: from IC50 screening.
Source text: as §4

The test system of experiment [9] is Terminal Transferase. As to the kind of experiment: Specificity screen versus telomerase. As to conditions: from IC50 screening. The class given is biochemical.
Source text: as §4

Experiment [10] addresses T1, telomerase. As to the kind of experiment: specificity in IMR-90, OVCAR-5 and SK-OV-3 cell samples (Topoisomerase II, Single-Strand Binding Protein, Terminal Transferase). The class given is cell-based. The note with it: cell samples dosed at one quarter of the IC50 for telomerase, versus Topoisomerase II. On the procedure:
In on experiment, Compound V was administered to IMR-90, OVCAR-5, and SK-OV-3 cell samples at a concentration one quarter that of its IC50 for telomerase. The effects of Compound V on the activity of Topoisomerase II, Single-Strand Binding Protein, and Terminal Transferase were then determined using standard methodologies.

The subject of experiment [11] is Topoisomerase II. As to the kind of experiment: Enzyme-mediated DNA cleavage assay (Topoisomerase II targeting / cleavable complex formation). The class given is biochemical. On the procedure: Compound V was tested for its ability to target Topoisomerase II in a standard enzyme-mediated DNA cleavage assay. The well known anti-tumor agent VP-16 was used as a positive control. […] The amount of linear DNA was proportional to the concentration of Compound V used in the experiment.

The test system of experiment [12] is SK-OV-3 cells. As to the kind of experiment: Long-term exposure of cell colonies, effect on growth. In kind it is cell-based. As to conditions: 5 μM, added every second day; versus DMSO control. As for the experimental part: as §2, §3
Experiment [13] deals with OVCAR-5 cells. The experiment is described as above. The note with it: 5 μM, added every second day; versus DMSO control. The class given is cell-based. As for the experimental part:
as §2, §3

Entries after “also recorded” stand apart in the source; their conditions may differ. Bounds are passed on as bounds.

T1 sequence (O14746 whole entry): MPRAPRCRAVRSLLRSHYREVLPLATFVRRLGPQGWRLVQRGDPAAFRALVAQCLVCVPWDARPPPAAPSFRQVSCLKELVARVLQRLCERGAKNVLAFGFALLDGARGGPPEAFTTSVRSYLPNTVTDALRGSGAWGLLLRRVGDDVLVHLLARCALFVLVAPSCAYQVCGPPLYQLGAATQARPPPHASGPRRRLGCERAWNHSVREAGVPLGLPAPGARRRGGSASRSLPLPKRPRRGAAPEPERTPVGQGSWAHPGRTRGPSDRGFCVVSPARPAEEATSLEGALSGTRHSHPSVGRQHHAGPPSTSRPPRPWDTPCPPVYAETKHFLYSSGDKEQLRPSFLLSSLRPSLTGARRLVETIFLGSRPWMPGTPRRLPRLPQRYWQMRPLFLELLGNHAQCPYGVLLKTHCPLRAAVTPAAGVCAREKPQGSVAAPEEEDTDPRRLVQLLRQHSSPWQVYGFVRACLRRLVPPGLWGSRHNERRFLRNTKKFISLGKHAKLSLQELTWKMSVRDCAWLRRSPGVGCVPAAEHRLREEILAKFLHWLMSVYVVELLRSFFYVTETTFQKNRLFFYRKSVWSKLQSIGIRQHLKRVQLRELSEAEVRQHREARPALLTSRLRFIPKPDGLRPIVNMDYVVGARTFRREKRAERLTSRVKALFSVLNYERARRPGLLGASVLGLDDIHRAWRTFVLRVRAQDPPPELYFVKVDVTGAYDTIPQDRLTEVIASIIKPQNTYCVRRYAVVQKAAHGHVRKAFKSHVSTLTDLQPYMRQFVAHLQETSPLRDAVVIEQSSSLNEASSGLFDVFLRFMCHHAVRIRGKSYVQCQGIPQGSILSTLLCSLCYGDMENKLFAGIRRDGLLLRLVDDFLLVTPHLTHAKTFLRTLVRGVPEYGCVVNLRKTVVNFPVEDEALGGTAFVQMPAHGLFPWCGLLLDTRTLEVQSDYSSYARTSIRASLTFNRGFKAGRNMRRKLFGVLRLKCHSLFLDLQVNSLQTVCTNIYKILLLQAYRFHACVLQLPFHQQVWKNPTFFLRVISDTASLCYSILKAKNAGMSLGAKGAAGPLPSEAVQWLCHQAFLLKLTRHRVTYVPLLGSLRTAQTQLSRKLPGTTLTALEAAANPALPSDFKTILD

Turning to `N#Cc1ccc(C=O)nc1SCc1ccc(Cl)s1` [Compound IX], the IC50 in experiment [1] amounted to 5 µM.

In the case of `N#Cc1ccc(C=O)nc1SCc1ccc(Cl)c(Cl)c1` [Compound V], the IC50 in experiment [2] came to 10 µM; in experiment [3], 5 µM; in experiment [4], 15 µM; in [1] it was 4.5 µM. For the same compound, in [5] (10 mg/(kg.day), intraperitoneal), the tumor growth entry was “not affected”. Besides, the “increase in tumor weight” value in [5] (25 mg/(kg.day), intraperitoneal) is “practically ceased after about 50 days”. Moreover, in experiment [5] (average, after increase for a period following initial dosing), the “tumor mass over time” value is recorded as “began to level with continuing treatment”. The “tumor growth as compared to vehicle” value in [5] (intraperitoneal, p<0.05, unpaired t-test) is “statistically significant slowing of tumor growth”. The “induction of senescence earlier than DMSO control” value in experiment [6] is on record as “approximately 5 period doublings”. Besides, the “lower specificity for Single-Stranded DNA Binding Protein (SSB) as compared to telomerase” value in [7] is given as at least 5 fold. Besides, in [8], the “lower specificity for Topoisomerase II as compared to telomerase” value was at least 5 fold. The “lower specificity for Terminal Transferase as compared to telomerase” value in [9] is listed as at least 5 fold. In addition, in experiment [10], the “specificity for telomerase (factor)” value was “about 5”. For the same compound, the “Topoisomerase II-mediated DNA cleavage (linear DNA in agarose gel)” value in [11] (VP-16 as positive control) is reported as “targeted Topoisomerase II”. For the same compound, the “cleavable complex formation in Topoisomerase II, level of activity versus adriamycin and mitoxantrone” value in experiment [11] (compared with adriamycin and mitoxantrone) is “greater than the well-known anti-tumor agents adriamycin and mitoxantrone; also recorded: stronger Topoisomerase II-targeting antitumor agent than the known Topoisomerase II-targeting agents adriamycin and mitoxantrone”. The “inhibitory activity with respect to Topoisomerase II” value in experiment [11] (qualitative statement) is reported as “display inhibitory activity with respect to Topoisomerase II; also recorded: demonstrate inhibitory activity with respect to Topoisomerase II”. Besides, the “Topoisomerase II activity relative to VP-16” value in [11] (relative to VP-16) is “one fifth the activity of VP-16”. In addition, the effect on cells result in experiment [12] is “No effect”. Besides, the “effect on cell growth” value in experiment [13] was “small effect”.

`N#Cc1ccc(C=O)nc1OCc1ccc(Cl)c(Cl)c1` [Compound XIII] gave an IC50 in [1] of 12.8 µM.

The compound `N#Cc1ccc(C=O)nc1SCC(=O)c1ccc(Cl)cc1` [Compound XII] returned an IC50 in experiment [1] of 15.1 µM.

In experiment [1], `N#Cc1ccc(C=O)nc1SCc1ccc(CSc2nc(C=O)ccc2C#N)cc1` [Compound XIX] came in with an IC50 of 5 µM.

`N#Cc1ccc(C=O)nc1SCC(=O)c1ccc(Cl)cc1Cl` [Compound XI] registered an IC50 in experiment [1] of 27 µM.

`N#Cc1ccc(C=O)nc1SCc1ccccc1CSc1nc(C=O)ccc1C#N` [Compound XVIII] gave an IC50 in experiment [1] of 6 µM.

For `N#Cc1ccc(C=O)nc1SCc1cccc(CSc2nc(C=O)ccc2C#N)c1` [Compound XVII], the IC50 in experiment [1] was below 3.2 µM.

In experiment [1], `Cc1cc(C)c(CSc2nc(C=O)ccc2C#N)c(C)c1CSc1nc(C=O)ccc1C#N` [Compound XVI] showed an IC50 below 3.2 µM.

Compound `Cc1cc(C)c(CSc2nc(C=O)ccc2C#N)cc1CSc1nc(C=O)ccc1C#N` [Compound XV] gave an IC50 in [1] below 3.2 µM.

As to `Cc1cc(CSc2nc(C=O)ccc2C#N)c(C)cc1CSc1nc(C=O)ccc1C#N` [Compound XXIII], in [1], the IC50 was 7 µM.

The compound `Cc1c(C)c(CSc2nc(C=O)ccc2C#N)c(C)c(CSc2nc(C=O)ccc2C#N)c1C` [Compound XXII] registered an IC50 in experiment [1] of 4 µM.

In turn, `N#Cc1ccc(C=O)nc1SCc1ccccc1-c1ccccc1CSc1nc(C=O)ccc1C#N` [Compound XXIV] showed an IC50 in [1] below 3.2 µM.

For the compound `N#Cc1ccc(C=O)nc1SCc1c2ccccc2c(CSc2nc(C=O)ccc2C#N)c2ccccc12` [Compound XXIX], the IC50 in experiment [1] came to 7 µM.

Regarding `N#Cc1ccc(C=O)nc1SCc1cc(Cl)c(CSc2nc(C=O)ccc2C#N)cc1Cl` [Compound XXI], in [1], the IC50 is below 3.2 µM.

`N#Cc1ccc(C=O)nc1SCc1c(Cl)c(Cl)c(CSc2nc(C=O)ccc2C#N)c(Cl)c1Cl` [Compound XXVIII] registered an IC50 in experiment [1] below 3.2 µM.

In the case of `N#Cc1ccc(C=O)nc1SCc1cccc2cccc(CSc3nc(C=O)ccc3C#N)c12` [Compound XXVII], in experiment [1], the IC50 is below 3.2 µM.

The compound `N#Cc1ccc(C=O)nc1SCc1cc2ccccc2cc1CSc1nc(C=O)ccc1C#N` [Compound XXVI] came in with an IC50 in [1] of 6 µM.

On to `N#Cc1ccc(C=O)nc1SCc1cc(Br)ccc1-c1ccc(Br)cc1CSc1nc(C=O)ccc1C#N` [Compound XXV], for which the IC50 in experiment [1] is below 3.2 µM.

Regarding `N#Cc1ccc(C=O)nc1SCCCCSc1nc(C=O)ccc1C#N` [Compound XXXIV], the IC50 in experiment [1] worked out at 7 µM.

In [1], `Cc1c(CSc2nc(C=O)ccc2C#N)c(C)c(CSc2nc(C=O)ccc2C#N)c(C)c1CSc1nc(C=O)ccc1C#N` [Compound XXXI] returned an IC50 below 3.2 µM.

In turn, `N#Cc1ccc(C=O)nc1SCC#CCSc1nc(C=O)ccc1C#N` [Compound XXXVI] yielded an IC50 in [1] of 5 µM.

Compound `N#Cc1ccc(C=O)nc1SCC=CCSc1nc(C=O)ccc1C#N` [Compound XXXV] returned an IC50 in experiment [1] of 10 µM.

For the compound `N#Cc1ccc(C=O)nc1SCc1ccc2ccccc2c1CSc1nc(C=O)ccc1C#N` [Compound XXX], the IC50 in experiment [1] was 7 µM.

For the compound `Cc1c(C)c(C)c(CSc2nc(C=O)ccc2C#N)c(CSc2nc(C=O)ccc2C#N)c1C` [Compound XX], the IC50 in experiment [1] was below 3.2 µM.

`N#Cc1ccc(C=O)nc1SCC(=O)c1ccc(Cl)c(Cl)c1` [Compound X] displayed an IC50 in [1] of 10.9 µM.

For the compound `Cc1c(C)c(C)c(CSc2nc(C=O)ccc2C#N)c(C)c1C` [III], in [1], the IC50 amounted to 9 µM.

For the compound `N#Cc1ccc(C=O)nc1SCc1ccc(C(F)(F)F)cc1` [IV], the IC50 in experiment [1] was 18 µM.

`CCc1c(CSc2nc(C=O)ccc2C#N)ccc2c1C(C)(C)CCC2(C)C` [VIII] showed an IC50 in experiment [1] of 21 µM.

On to `CC1(C)CCC(C)(C)c2cc(CSc3nc(C=O)ccc3C#N)ccc21` [VII], for which the IC50 in [1] is 8 µM.

`N#Cc1ccc(C=O)nc1SCc1c(Cl)cccc1Cl` [VI] gave an IC50 in experiment [1] of 7 µM.

Consider `N#Cc1ccc(C=O)nc1SCc1cc(CSc2nc(C=O)ccc2C#N)c(CSc2nc(C=O)ccc2C#N)cc1CSc1nc(C=O)ccc1C#N` [XXXIII], for which the IC50 in experiment [1] was below 3.2 µM.

Compound `N#Cc1ccc(C=O)nc1SCc1ccc(CSc2nc(C=O)ccc2C#N)c(CSc2nc(C=O)ccc2C#N)c1CSc1nc(C=O)ccc1C#N` [XXXII] returned an IC50 in experiment [1] below 3.2 µM.
